These results are taken from patent US20240009212A1, “PHOSPHAPLATIN COMPOUNDS AS THERAPEUTIC AGENTS SELECTIVELY TARGETING HIGHLY GLYCOLYTIC TUMOR CELLS AND METHODS THEREOF” (Promontory Therapeutics Inc., priority 2020, published 2024).

Format in all cases: cell-based, mouse
Assay [1] concerns L929dt and L929^dt cells. As to the kind of experiment: Mitochondrial ROS production (MitoSOX), sensitive cells. On the procedure: Total ROS production and mitochondrial membrane potential were simultaneously measured using a FACScalibur flow cytometer. Pretreated cells with PT-112 were incubated with DiOC6 at 20 nM (Molecular Probes, Madrid) and DHE at 2 μM (Molecular Probes, Madrid) for 30 min at 37° C. For specific mitochondrial ROS production, cells were incubated with MitoSOX™ (5 μM, ThermoFisher, Rockford, USA) for 30 minutes at 37° C.
In order to obtain more evidence about the mechanism of action of PT-112, its effect on ROS production was analyzed. First, a time-course determination of total ROS generation by detection of 2HE oxidation was performed by flow cytometry. […] To complete this study, specific mitochondrial ROS production upon PT-112 treatment using the MitoSOX™ reagent was determined.
However, this effect can be due to direct reactivity of the thiol group with Pt, inactivating the cytotoxic potential of PT-112, and not to the elimination of ROS generation. This hypothesis was confirmed by incubating PT-112 with GSH during 1 h in the absence of cells and adding this GSH-treated PT-112 to cells, showing no cytotoxicity (FIG. 6). […] Since PT-112-induced ROS generation seems to be concentrated in mitochondria, the mitochondria-specific ROS scavenger MitoTEMPO was used. Cells (3×10^4) were seeded in a 96-well plate in phenol red-free medium and were incubated with 100 μM of MitoTEMPO for 2 h. Then, 10 μM of PT-112 was added and incubated for 48 and 72 h at 37° C.

Assay [2] concerns L929dt and L929^dt cells. As to the kind of experiment: ROS scavengers on PT-112-induced cell death. The note with it: for effect on PT-112-induced cell death: ROS scavenger plus 10 μM PT-112 (GSH 5 mM, 72 h).
Assay [3] relates to glycolytic cells sensitive to PT-112-induced cell death. As to the kind of experiment: Apoptosis and necroptosis inhibition of PT-112-induced cell death. Conditions: 1 h pretreatment (Z-VAD-fmk 50 μM, necrostatin-1 30 μM), then 10 μM PT-112 for 48 h. As for the experimental part: Cells (3×10^4) were seeded in a 96-well plate and incubated with a pan-caspase-inhibitor Z-VAD-fmk (50 μM, MedChem Express, New Jersey, USA) and/or RIPK-1 inhibitor necrostatin-1 (30 μM, MedChem Express, New Jersey, USA) for 1 h. After that, cells were treated with 10 μM of PT-112 and incubated for 48 h at 37° C. Both inhibitors were refreshed in their corresponding well after 24 h. Finally, cell death was assessed using flow cytometry after incubation with annexin-V-FITC and 7-AAD for 10 minutes. […] For this purpose, a FITC-labelled anti-caspase-3 antibody that detects cleaved, active caspase-3 by flow cytometry was used. Cells (3×10^4) were treated with 10 μM of PT-112 for 24-72 h. Then, cells were incubated with anti-cleaved caspase-3 labelled with FITC dye and analyzed by flow cytometry. […] The implications of caspase-3 activation in this process were investigated by tested the ability of the general pan-caspase inhibitor Z-VAD-fmk and/or the necroptosis inhibitor necrostatin-1 to prevent cell death induced by PT-112 (FIG. 4B). Cells were pretreated for 1 h with or without pan-caspase or/and necroptosis inhibitors and then, incubated with 10 μM of PT-112 for 48 h. Flow cytometry analysis was carried-out using annexin-V-FITC and 7-AAD staining. Cells were stained simultaneously with annexin-V-FITC and 7-AAD and the percentage of the different populations analyzed by flow cytometry. […]

Assay [4] relates to L929dt and L929^dt cybrid cells. As to the kind of experiment: MTT relative cell growth, glycolytic cells. Conditions: 72 h, highest dose (10 μM). On the procedure:
(§1) Cell Culture and Generation of Cybrids Mouse fibroblast cell lines L929 and L929-derived (L929dt) were routinely cultured in high glucose DMEM medium with GlutaMAX (Life Technologies, Paisley, UK) supplemented with 10% of fetal calf serum (FCS), penicillin (1000 U/ml) and streptomycin (10 mg/ml) (PanBiotech, Aidenbach, Germany) at 37° C. and 5% CO2 using standard procedures. The transmitochondrial cell lines L929^dt and dt^L929 were obtained as previously described (Schmidt, W., et al. (1993) 53:799-805) and cultured with the identical medium used with the parental cells. For L929-ρ^0 cells, complete DMEM medium was also supplemented with 100 pyruvate (100 μg/ml) and uridine (50 μg/ml).
(§2) Relative cell growth was measured using the Mossman's method. 3×10^4 cells were seeded per well in a 96-well flat-bottomed plate and incubated with increasing concentrations of PT-112 or cisplatin (2, 6, and 10 μM) for 24-72 h at 37° C. […] During the incubation time, viable cells reduce MTT solution in insoluble purple formazan crystals, solubilized afterwards with isopropanol and 0.05 M HCl mixture and the absorbance was measured in a microplate reader (Dynatec, Pina de Ebro, Spain).
(§3) The sensitivity of L929, L929dt and cybrid cells to PT-112 was compared. […] The ability of both drugs to inhibit cell growth was assessed by the MTT reduction method. […]

Assay [5] has as its system L929 and dt^L929 cells. As to the kind of experiment: MTT relative cell growth, OXPHOS-competent cells. The note with it: 72 h, higher doses. As for the experimental part: as §1, §2, §3
Assay [6] deals with L929-ρ^0 cells. As to the kind of experiment: MTT relative cell growth, rho0 cells. Conditions: 2, 6 and 10 μM, 24-72 h. As for the experimental part: as §1
Relative cell growth was measured using the Mossman's method. 3×10^4 cells were seeded per well in a 96-well flat-bottomed plate and incubated with increasing concentrations of PT-112 or cisplatin (2, 6, and 10 μM) for 24-72 h at 37° C. Then, 10 μl of a 5 mg/ml MTT dye solution was added per well and incubated for 3 hours. During the incubation time, viable cells reduce MTT solution in insoluble purple formazan crystals, solubilized afterwards with isopropanol and 0.05 M HCl mixture and the absorbance was measured in a microplate reader (Dynatec, Pina de Ebro, Spain). […]

Assay [7] deals with L929, L929dt and cybrids cells. The assay is described as follows: Cytotoxicity, annexin-V-FITC/7-AAD flow cytometry. Conditions: 10 μM, 24, 48 or 72 h. On the procedure: Cytotoxicity assays were carried-out as follows: 100 μl aliquots of 3×10^4 cells were seeded per well in 96-well plate and 10 μM of PT-112 or cisplatin was added and incubated for 24-72 h at 37° C. Cell death was analyzed using a FACScalibur flow cytometer (BD Biosciences) after incubation with Annexin-V-FITC and/or 7-AAD (BD Biosciences, Madrid) in annexin binding buffer (140 mM NaCl, 2.5 mM CaCl2), 10 mM HEPES/NaOH, pH 7.4) for 10 minutes.
To test cell death induction by PT-112 and cisplatin, the parental cells L929, L929dt and cybrids cells were incubated with 10 μM of PT-112 or cisplatin for 24, 48 or 72 h and, at the end of the incubations, simultaneously stained with annexin-V-FITC and 7-AAD and analyzed by flow cytometry. […] The results are shown as mean±SD of at least 2 independent experiments made in duplicate. […] On the contrary, in cells treated with PT-112, this population is not observed at any time point in sensitive L929dt and L929^dt cells, and a population double positive for both markers is at short times of exposure, increasing with time (FIG. 2B, bar sections colored in white). Finally, at longer times, a population positive for 7-AAD and negative for annexin-V staining appears for both cell lines, typical of necrotic cell death (FIG. 2B, sections colored in grey).
In general terms: A flow cytometer gives signals particle by particle.

Peptide text beside a SMILES is read from it. * marks the point of attachment. Cbz = O=C(OCc1ccccc1)*; CH2F = FC*

In the case of `CC1(C)CC(NC(=O)C[P+](c2ccccc2)(c2ccccc2)c2ccccc2)CC(C)(C)N1[O]` [MitoTEMPO], the “inhibition of mitochondrial superoxide generation induced by PT-112” value in assay [1] (100 μM MitoTEMPO 2 h, then 10 μM PT-112, L929dt cells) was “only partially”. In addition, the “inhibition of mitochondrial superoxide generation induced by antimycin A” value in assay [1] (100 μM MitoTEMPO, L929dt cells) is given as “almost completely abolish”. The “protection from PT-112-induced L929dt cell death” value in assay [2] (100 μM MitoTEMPO, 10 μM PT-112, statistically significant after 72 h) is recorded as “partial protection”.

`O=C(O)c1ccc(/C2=C3\C=CC(=N3)/C(c3ccc(C(=O)O)cc3)=c3/cc/c4[n]3[Mn]([Cl])[n]3c2ccc3/C(c2ccc(C(=O)O)cc2)=C2/C=CC(=N2)\C=4c2ccc(C(=O)O)cc2)cc1` [MnTBAP]: in assay [2], the “effect on PT-112-induced cell death” value is listed as “neither of them were able to prevent”. Regarding `CC1(C)CCCC(C)(C)N1[O]` [TEMPO], the “effect on PT-112-induced cell death” value in assay [2] is “neither of them were able to prevent”.

Consider `COC(=O)C[C@H](NC(=O)[C@H](C)NC(=O)[C@@H](NC(=O)OCc1ccccc1)C(C)C)C(=O)CF` [Z-VAD-fmk] (Cbz-Val-Ala-Asp(OMe)-CH2F), for which the “prevention of cell death induced by PT-112” value in assay [3] is listed as “did not inhibit cell death”. For `N.N.[Cl][Pt][Cl]` [cisplatin], the growth inhibition in assay [4] is reported as 95%; in assay [5], 70%. Further, the cell growth result in assay [6] was “inhibited the growth”. Also, in assay [7], the cell death induction entry was “induces cell death in all cell lines”. For `N[C@@H](CCC(=O)N[C@@H](CS)C(=O)NCC(=O)O)C(=O)O` [glutathione], the “effect on PT-112-induced cell death” value in assay [2] is on record as “completely abolished”. For `CN1C(=O)C(Cc2c[nH]c3ccccc23)NC1=S` (centres unmarked) [necrostatin-1], the “prevention of cell death induced by PT-112” value in assay [3] is on record as “did not inhibit cell death”.

Take `Cc1c(C)c2c(c(C)c1O)CC[C@@](C)(CCC[C@H](C)CCC[C@H](C)CCCC(C)C)O2` [α-tocopherol]: the “effect on PT-112-induced cell death” value in assay [2] is “neither of them were able to prevent”. antimycin A: in assay [1] (L929dt cells, MitoSOX, FIG. 7), the “mitochondrial superoxide anion, MFI” value is recorded as 128.
